Where two headings read alike, the source gives them in different places.
Key:
cyclin D1 = test: Cyclin D1 percentage degradation in Calu-1 cells (immunoblotting); format: cell-based; conditions: 16 hours
Method in brief: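 Cells were rinsed once in cold PBS and lysed in cold RIPA buffer containing protease and phosphatase inhibitors, with gentle agitation at 4° C. for 30 min. Lysates were spun at 13,000 rpm for 10 min at 4° C., protein was measured by BCA, and samples were boiled in Laemmli buffer at 99° C. for 5 min before SDS-PAGE immunoblotting.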

CDK4 = target: T1, CDK4 (Homo sapiens, UniProt P11802); test: CDK4 percentage degradation in Calu-1 cells (immunoblotting); format: cell-based; conditions: for inhibition at 10 µM: read-out: CDK4 Degradation (10 μM); for inhibition at 0.2 µM: read-out: CDK4 Degradation (200 nM)
T1 construct: endogenous in cells; host or cells: Calu-1
Method in brief: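 Cultured cells were rinsed once in cold PBS and lysed in cold RIPA buffer containing protease and phosphatase inhibitors, with gentle agitation at 4° C. for 30 min. Lysates were centrifuged at 13,000 rpm for 10 min at 4° C., and protein was quantified by BCA. Samples were then separated by SDS-PAGE, detected with ECL, and the CDK4 bands quantified in Image Lab.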

T1 sequence (P11802 2-303 limits assumed): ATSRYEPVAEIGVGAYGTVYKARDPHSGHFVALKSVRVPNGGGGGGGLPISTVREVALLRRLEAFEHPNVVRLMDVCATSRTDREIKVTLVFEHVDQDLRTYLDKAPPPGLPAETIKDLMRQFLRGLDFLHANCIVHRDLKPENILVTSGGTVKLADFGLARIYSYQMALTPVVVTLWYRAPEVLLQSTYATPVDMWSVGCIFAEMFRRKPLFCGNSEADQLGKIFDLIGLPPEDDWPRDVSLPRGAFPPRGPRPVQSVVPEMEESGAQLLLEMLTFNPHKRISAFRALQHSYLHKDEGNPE
T1 sequence (P24385 whole entry partner): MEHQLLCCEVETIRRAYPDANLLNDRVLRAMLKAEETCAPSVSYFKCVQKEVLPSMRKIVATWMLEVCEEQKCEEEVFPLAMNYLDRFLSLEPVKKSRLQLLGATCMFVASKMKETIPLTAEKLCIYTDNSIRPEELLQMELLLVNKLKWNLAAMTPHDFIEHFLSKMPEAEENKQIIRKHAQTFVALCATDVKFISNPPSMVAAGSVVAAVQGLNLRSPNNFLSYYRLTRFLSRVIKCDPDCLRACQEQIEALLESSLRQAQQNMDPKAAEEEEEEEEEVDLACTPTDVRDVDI
T1 sequence (Q16531 2-1140 limits assumed, further chain): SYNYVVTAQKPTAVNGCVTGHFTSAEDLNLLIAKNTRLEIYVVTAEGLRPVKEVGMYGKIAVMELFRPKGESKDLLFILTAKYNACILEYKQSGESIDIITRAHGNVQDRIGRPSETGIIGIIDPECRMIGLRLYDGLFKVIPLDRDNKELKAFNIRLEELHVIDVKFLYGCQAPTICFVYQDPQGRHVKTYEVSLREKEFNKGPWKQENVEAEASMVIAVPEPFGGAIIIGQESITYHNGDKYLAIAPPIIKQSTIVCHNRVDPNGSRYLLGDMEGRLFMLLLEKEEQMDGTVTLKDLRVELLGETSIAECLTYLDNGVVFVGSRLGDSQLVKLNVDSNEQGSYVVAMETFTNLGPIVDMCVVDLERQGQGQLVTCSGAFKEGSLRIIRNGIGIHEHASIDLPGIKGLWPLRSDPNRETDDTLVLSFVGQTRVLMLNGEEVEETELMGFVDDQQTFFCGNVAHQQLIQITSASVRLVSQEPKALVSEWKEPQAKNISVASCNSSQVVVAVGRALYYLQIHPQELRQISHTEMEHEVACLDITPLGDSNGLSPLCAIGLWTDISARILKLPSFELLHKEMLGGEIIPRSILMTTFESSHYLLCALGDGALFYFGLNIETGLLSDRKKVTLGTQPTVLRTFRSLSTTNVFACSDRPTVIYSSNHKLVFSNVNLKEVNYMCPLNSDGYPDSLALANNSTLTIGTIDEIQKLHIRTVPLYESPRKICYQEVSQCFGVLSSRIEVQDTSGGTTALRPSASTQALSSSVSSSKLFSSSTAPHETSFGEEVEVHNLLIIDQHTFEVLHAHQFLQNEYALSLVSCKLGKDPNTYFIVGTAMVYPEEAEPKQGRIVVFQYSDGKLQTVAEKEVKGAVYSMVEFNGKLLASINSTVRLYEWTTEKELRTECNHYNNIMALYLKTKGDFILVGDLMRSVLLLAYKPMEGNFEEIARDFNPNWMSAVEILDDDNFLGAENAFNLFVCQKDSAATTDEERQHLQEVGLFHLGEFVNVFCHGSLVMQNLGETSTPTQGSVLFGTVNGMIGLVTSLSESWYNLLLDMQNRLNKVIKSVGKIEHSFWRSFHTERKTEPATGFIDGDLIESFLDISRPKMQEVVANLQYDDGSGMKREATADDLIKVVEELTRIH

SMILES	CyclinD1 Degradation (10 μM) (cyclin D1)	inhibition at 10 µM (CDK4; Calu-1 cells, 16 hours) [%]	CyclinD1 Degradation (200 nM) (cyclin D1)	inhibition at 0.2 µM (CDK4; Calu-1 cells, 200 nM, 16 hours) [%]	inhibition at 0.2 µM (CDK4; Calu-1, 16 h) [%]
Cc1nc(NC(=O)c2ccccc2NC(=O)CCOCCNC(=O)CN2CCN(c3ccc(Nc4ncc5cc(C(=O)N(C)C)n(C6CCCC6)c5n4)nc3)CC2)sc1C [CPD-294, 7-Cyclopentyl-2-((5-(4-(2-((2-(3-((2-((4,5-dimethylthiazol-2-yl)carbamoyl)phenyl)amino)-3-oxopropoxy)ethyl)amino)-2-oxoethyl)piperazin-1-yl)pyridin-2-yl)amino)-N,N-dimethyl-7H-pyrrolo[2,3-d]pyrimidine-6-carboxamide]	A (protein percentage degradation >= 80%)	50 to 80			
COc1ccc(NC(=O)c2ccccc2NC(=O)COCCN2CCC(NC(=O)CN3CCN(c4ccc(Nc5ncc6c(C)c(C(C)=O)c(=O)n(C7CCCC7)c6n5)nc4)CC3)CC2)nn1 [CPD-347, 2-(2-(2-(4-(2-(4-(6-((6-Acetyl-8-cyclopentyl-5-methyl-7-oxo-7,8-dihydropyrido[2,3-d]pyrimidin-2-yl)amino)pyridin-3-yl)piperazin-1-yl)acetamido)piperidin-1-yl)ethoxy)acetamido)-N-(6-methoxypyridazin-3-yl)benzamide]			D (protein percentage degradation <30%)	< 30	
COc1ccc(NC(=O)c2ccccc2NC(=O)CCN2CCN(CCNC(=O)CN3CCN(c4ccc(Nc5ncc6c(C)c(C(C)=O)c(=O)n(C7CCCC7)c6n5)nc4)CC3)CC2)nn1 [CPD-345, 2-(3-(4-(2-(2-(4-(6-((6-Acetyl-8-cyclopentyl-5-methyl-7-oxo-7,8-dihydropyrido[2,3-d]pyrimidin-2-yl)amino)pyridin-3-yl)piperazin-1-yl)acetamido)ethyl)piperazin-1-yl)propanamido)-N-(6-methoxypyridazin-3-yl)benzamide]			A (protein percentage degradation >=80%)	50 to 80	
Cc1nc(NC(=O)c2ccccc2NC(=O)CCCNC(=O)CN2CCN(c3ccc(Nc4ncc(F)c(-c5cc(F)c6nc(C)n(C(C)C)c6c5)n4)nc3)CC2)sc1C [CPD-302, N-(4,5-Dimethylthiazol-2-yl)-2-(4-(2-(4-(6-((5-fluoro-4-(4-fluoro-1-isopropyl-2-methyl-1H-benzo[d]imidazol-6-yl)pyrimidin-2-yl)amino)pyridin-3-yl)piperazin-1-yl)acetamido)butanamido)benzamide]	D (protein percentage degradation < 30%)	< 30			
Cc1nc(NC(=O)c2ccccc2NC(=O)CCCCCCCCNC(=O)CN2CCN(c3ccc(Nc4ncc5cc6n(c5n4)C4(CCCCC4)CNC6=O)nc3)CC2)sc1C [CPD-321, N-(4,5-Dimethylthiazol-2-yl)-2-(9-(2-(4-(6-((6′-oxo-7′,8′-dihydro-6′H-spiro[cyclohexane-1,9′-pyrazino[1′,2′:1,5]pyrrolo[2,3-d]pyrimidin]-2′-yl)amino)pyridin-3-yl)piperazin-1-yl)acetamido)nonanamido)benzamide]	A (protein percentage degradation >= 80%)	50 to 80			
Cc1nc(NC(=O)c2ccccc2NC(=O)CCCCCNC(=O)CN2CCN(Cc3ccc(Nc4ncc(F)c(-c5cc(F)c6nc(C)n(C(C)C)c6c5)n4)nc3)CC2)sc1C [CPD-276, N-(4,5-Dimethylthiazol-2-yl)-2-(6-(2-(4-((6-((5-fluoro-4-(4-fluoro-1-isopropyl-2-methyl-1H-benzo[d]imidazol-6-yl)pyrimidin-2-yl)amino)pyridin-3-yl)methyl)piperazin-1-yl)acetamido)hexanamido)benzamide]	D (protein percentage degradation < 30%)	< 30			
CC(=O)c1c(C)c2cnc(Nc3ccc(N4CCN(CC(=O)NCCOCCOCCC(=O)NC5CCCCC5C(=O)Nc5nc(C)c(C)s5)CC4)cn3)nc2n(C2CCCC2)c1=O (centres unmarked) [CPD-179, 2-(3-(2-(2-(2-(4-(6-((6-Acetyl-8-cyclopentyl-5-methyl-7-oxo-7,8-dihydropyrido[2,3-d]pyrimidin-2-yl)amino)pyridin-3-yl)piperazin-1-yl)acetamido)ethoxy)ethoxy)propanamido)-N-(4,5-dimethylthiazol-2-yl)cyclohexane-1-carboxamide]			D (protein percentage degradation <30%)	< 30	
CC(=O)c1c(C)c2cnc(Nc3ccc(N4CCN(CC(=O)NCCOCCOCCC(=O)Nc5ccccc5CNc5nc(C)c(C)s5)CC4)cn3)nc2n(C2CCCC2)c1=O [CPD-154, 3-(2-(2-(2-(4-(6-((6-Acetyl-8-cyclopentyl-5-methyl-7-oxo-7,8-dihydropyrido[2,3-d]pyrimidin-2-yl)amino)pyridin-3-yl)piperazin-1-yl)acetamido)ethoxy)ethoxy)-N-(2-(((4,5-dimethylthiazol-2-yl)amino)methyl)phenyl)propanamide]			D (protein percentage degradation <30%)	< 30	
CC(=O)c1c(C)c2cnc(Nc3ccc(N4CCN(CC(=O)NCCOCCOCCOCCOCCOCCNc5ccc(C(=O)Nc6ncc(Cl)s6)c(C)c5)CC4)cn3)nc2n(C2CCCC2)c1=O [CPD-005, 4-((1-(4-(6-((6-Acetyl-8-cyclopentyl-5-methyl-7-oxo-7,8-dihydropyrido[2,3-d]pyrimidin-2-yl)amino)pyridin-3-yl)piperazin-1-yl)-2-oxo-6,9,12,15,18-pentaoxa-3-azaicosan-20-yl)amino)-N-(5-chlorothiazol-2-yl)-2-methylbenzamide]			D (protein percentage degradation <30%)	< 30	
CC(=O)c1c(C)c2cnc(Nc3ccc(N4CCN(CC(=O)NCCOCCOCCC(=O)Nc5c(C(=O)Nc6ccc(C)cn6)ccc6ncccc56)CC4)cn3)nc2n(C2CCCC2)c1=O [CPD-362, 5-(3-(2-(2-(2-(4-(6-((6-Acetyl-8-cyclopentyl-5-methyl-7-oxo-7,8-dihydropyrido[2,3-d]pyrimidin-2-yl)amino)pyridin-3-yl)piperazin-1-yl)acetamido)ethoxy)ethoxy)propanamido)-N-(5-methylpyridin-2-yl)quinoline-6-carboxamide]			D (protein percentage degradation <30%)	< 30	
CC(=O)c1c(C)c2cnc(Nc3ccc(N4CCN(C(=O)CCOCCOCCOCCOCCOCCOCCNc5cccc(C(=O)Nc6nc(C)c(C)s6)c5C)CC4)cn3)nc2n(C2CCCC2)c1=O [CPD-133, 3-((21-(4-(6-((6-Acetyl-8-cyclopentyl-5-methyl-7-oxo-7,8-dihydropyrido[2,3-d]pyrimidin-2-yl)amino)pyridin-3-yl)piperazin-1-yl)-21-oxo-3,6,9,12,15,18-hexaoxahenicosyl)amino)-N-(4,5-dimethylthiazol-2-yl)-2-methylbenzamide]			A (protein percentage degradation >=80%)		50 to 80
Cc1nc(NC(=O)c2ccccc2NC(=O)CCOCCOCCOCCOCCNC(=O)CN2CCN(c3ccc(Nc4ncc(F)c(-c5cc(F)c6nc(C)n(C(C)C)c6c5)n4)nc3)CC2)sc1C [CPD-311, N-(4,5-Dimethylthiazol-2-yl)-2-(1-(4-(6-((5-fluoro-4-(4-fluoro-1-isopropyl-2-methyl-1H-benzo[d]imidazol-6-yl)pyrimidin-2-yl)amino)pyridin-3-yl)piperazin-1-yl)-2-oxo-6,9,12,15-tetraoxa-3-azaoctadecan-18-amido)benzamide]	A (protein percentage degradation >= 80%)	30 to 50			
CC(=O)c1c(C)c2cnc(Nc3ccc(N4CCN(CC(=O)NCCOCCOCCOCCOCCNc5cccc(C(=O)Nc6nc(C)c(C)s6)c5C)CC4)cn3)nc2n(C2CCCC2)c1=O [CPD-106, 3-((1-(4-(6-((6-Acetyl-8-cyclopentyl-5-methyl-7-oxo-7,8-dihydropyrido[2,3-d]pyrimidin-2-yl)amino)pyridin-3-yl)piperazin-1-yl)-2-oxo-6,9,12,15-tetraoxa-3-azaheptadecan-17-yl)amino)-N-(4,5-dimethylthiazol-2-yl)-2-methylbenzamide]			A (protein percentage degradation >=80%)	50 to 80	
Cc1nc(NC(=O)c2ccccc2NC(=O)CCOCCOCCOCCOCCOCCOCCNC(=O)CN2CCN(Cc3ccc(Nc4ncc(F)c(-c5cc(F)c6nc(C)n(C(C)C)c6c5)n4)nc3)CC2)sc1C [CPD-285, N-(4,5-Dimethylthiazol-2-yl)-2-(1-(4-((6-((5-fluoro-4-(4-fluoro-1-isopropyl-2-methyl-1H-benzo[d]imidazol-6-yl)pyrimidin-2-yl)amino)pyridin-3-yl)methyl)piperazin-1-yl)-2-oxo-6,9,12,15,18,21-hexaoxa-3-azatetracosan-24-amido)benzamide]	D (protein percentage degradation < 30%)	< 30			
CC(=O)c1c(C)c2cnc(Nc3ccc(N4CCN(CC(=O)NCCOCCOCCC(=O)Nc5cccc(Cl)c5C(=O)Nc5ccc(C)cn5)CC4)cn3)nc2n(C2CCCC2)c1=O [CPD-337]			D (protein percentage degradation <30%)	< 30	
CC(=O)c1c(C)c2cnc(Nc3ccc(N4CCN(CC(=O)NCCCCCCCCC(=O)Nc5ccccc5C(=O)Nc5nc(C)c(C)s5)CC4)cn3)nc2n(C2CCCC2)c1=O [CPD-113, 2-(9-(2-(4-(6-((6-Acetyl-8-cyclopentyl-5-methyl-7-oxo-7,8-dihydropyrido[2,3-d]pyrimidin-2-yl)amino)pyridin-3-yl)piperazin-1-yl)acetamido)nonanamido)-N-(4,5-dimethylthiazol-2-yl)benzamide]			A (protein percentage degradation >=80%)	50 to 80	

Reference: US20250235543A1, “MODIFIED PROTEINS AND PROTEIN DEGRADERS” (Cullgen (Shanghai), Inc., priority 2021, published 2025)
